Here are results for two compounds from patent publication EP2439195B1, “NAPHTHALENE CARBOXAMIDE DERIVATIVES AS INHIBITORS OF PROTEIN KINASE AND HISTONE DEACETYLASE, PREPARATION METHODS AND USES THEREOF” (Shenzhen Chipscreen Biosciences, Ltd., priority 2009, dated 2010).

The structures appear in SMILES notation.

One series concerns the target T1, human PDGFRβ (Homo sapiens, UniProt P09619).
T1 construct: expressed in transfected cells
Nature of the series: PDGF dependent cell proliferation (MTS). The format is cell-based. The following applies: PDGFRβ NIH-3T3 cells, PDGF BB (50ng/ml), 72 hours, serum-free medium; read-out: Gl50 nM (PDGF ligand-dependent cell proliferation). The protocol: NIH-3T3 mouse fibroblasts cell line engineered to stably express human PDGFRβ was constructed and used to evaluate PDGF dependent cell proliferation. PDGFRβ NIH-3T3 cells were plated into 96-well plates at 5,000 per well and incubated overnight with serum-free medium after 24 hours. Compounds to be tested and PDGF BB (50ng/ml) were added and incubated for 72 hours in serum-free medium. The effects on proliferation were determined by MTS method (Promega) according to the instruction. Incubation was performed for 2 hours at 37°C in CO2 incubator, and absorbance at 490nm was measured using an ELISA plate reader.

A further series relates to HUVEC cells. As to the kind of experiment: VEGF dependent cell proliferation (MTS). It is filed as cell-based. Particulars: Homo sapiens, VEGF 165 (50ng/ml), 72 hours, serum-free medium, read-out: Gl50 nM (VEGF ligand-dependent cell proliferation). The protocol: HUVEC cells were plated into 96-well plates at 6,000 per well and after 24 hours incubated with serum-free medium for 2 hours. Compounds to be tested and VEGF 165 (50ng/ml) were added and incubated for 72 hours in serum-free medium. The effects on cell proliferation were determined by MTS method (Promega) according to the instruction. Incubation was performed for 2 hours at 37°C in CO2 incubator, and absorbance at 490nm was determined using an ELISA plate reader.

The subject of the next series is total HDAC enzyme. Nature of the series: In vitro total HDAC enzyme activity (HDAC Fluorimetric Assay/Drug Discovery Kit, HeLa cell nuclear extract). It is filed as biochemical. How it is done:
The in vitro total HDAC enzyme activity was determined by HDAC Fluorimetric Assay/Drug Discovery Kit (BIOMOL) according to manufacture's instruction. The principle of the experiment is as follows: under the action of histone deacetylase (in the experiment, HeLa cell nuclear extract, which was rich in a variety of subtypes of HDAC, was used), an acetyl group is removed from a special substrate Fluor de Lys, thus the free amino is exposed. Upon Developer is added, the substrate will produce fluorescence. For the fluorescence, excitation wavelength is 360nm, and emission wavelength is 460nm. More fully the substrate deacetylated, more higher the fluorescence induced. In the absence of inhibitors, the fluorescence value is taken as the control; when inhibitor is existed, fluorescence value induced will be reduced, while in the case no enzyme is existed (corresponding to the completely inhibition of enzyme activity) the fluorescence value is blank. Generally, after suppression the fluorescence values will be between the control and blank. When analysis is made, blank will be used as 0, and the control will be used as 1. Smaller value means higher inhibitory activity. 1. Add Assay buffer, diluted trichostatin A and test inhibitor to appropriate wells of the microtiter plate. Following table lists the amounts used for each regent of various assay types.
2. Add diluted HeLa nucleoprotein extract to all wells except those that are marked as "blank". 3. Allow diluted Fluor de Lys™ Substrate and the samples in the microtiter plate to equilibrate to 25°C. 4. Initiate HDAC reactions by adding diluted substrate (25 µl) to each well and mixing thoroughly. 5. Allow reactions to proceed for 30 minutes and then stop them by addition of Fluor de Lys™ Developer (50 µl). Incubate plate at room temperature (25°C) for 10-15 min. 6. Read fluorescence of samples on a microtiter-plate reading fluorimeter at a excitation wavelength of 369 nm and a emitted wavelength of 451 nm.

The test system of the next series is Class I HDAC. Nature of the series: HDAC subtype selectivity reporter gene assay (P21 reporter, HeLa cells). The format is cell-based. The following applies: Homo sapiens; 10µM; HeLa cells, 24 hours; read-out: Class I HDAC (P21 reporter assay) Fold Induction at 10µM. How it is done: Different HDAC subtypes can bind with different transcriptional factors and involve in expression regulation of various genes. Suitable regulation elements for transcriptional factors are selected to construct reporter genes, which can be used to evaluate the selective inhibition of inhibors on HDAC subtypes. Briefly, HeLa cells were seeded in 96-well plates the day before transfection to give a confluence of 50-80% when transfection. Cells were transfected with one of reporter gene plasmid containing a p21-promoter sequence or response element upstream of a luciferase gene construct using FuGene6 transfection reagent according to the manufacturer's instruction (Roche). For normalizing the transfection efficiency, a GFP expression plasmid was cotransfected. After 24 hours compounds or the vehicle control (DMSO) were added. 24 hours later the cells were harvested and lysed, and the amount of the luciferase was evaluated using luciferase assay kits (Promega) according to the manufacturer's instructions.
(In a reporter assay the amount or activity of a reporter protein is the signal.)

The next series concerns A-498. Nature of the series: Tumor cell proliferation (MTS), A-498. It is filed as cell-based. The following applies: Homo sapiens, A498; A-498, 72 hours; read-out: Gl50 µM in A-498. The protocol: (§1) Tumor cells were trypsinized and plated into 96-well plates at 3,000 per well and incubated in complete medium with 10% FBS for 24 hours. Compounds to be tested and vehicle control were added, and the final concentration of compound is in the range of 100 nmol/L to 100 µmol/L. The compounds were incubated for 72 hours in complete medium. The MTS reagent (Promega) was added according to the instruction, incubated for 2 hours at 37°C in CO2 incubator. Then absorbance at 490nm is read using an ELISA plate reader.

A further series has as its system A549. Nature of the series: Tumor cell proliferation (MTS), A549. It is filed as cell-based. The following applies: Homo sapiens; A549, 72 hours; read-out: Gl50 µM in A549. How it is done:
as §1

Another series concerns Bel-7402. Nature of the series: Tumor cell proliferation (MTS), Bel-7402. The format is cell-based. The following applies: Homo sapiens; Bel-7402, 72 hours; read-out: Gl50 µM in Bel-7402. The protocol: as §1
The test system of the next series is HCT-8. As to the kind of experiment: Tumor cell proliferation (MTS), HCT-8. It is filed as cell-based. Particulars: Homo sapiens; HCT-8, 72 hours; read-out: Gl50 µM in HCT-8. The protocol:
as §1

In the next series the test system is MCF-7. Nature of the series: Tumor cell proliferation (MTS), MCF-7. It is filed as cell-based. The following applies: Homo sapiens, MCF7; MCF-7, 72 hours; read-out: Gl50 µM in MCF-7. How it is done:
as §1

In the next series the test system is human A549 lung cancer. As to the kind of experiment: Nude mice tumor transplanted from human A549 lung cancer (Example 51). The format is in vivo. The following applies: for TGI (%): tumor growth inhibition. How it is done:
Then the cultured A549 human lung cancer cells were implanted into the armpit of 50 mice. […] Each group had 8 mice. One group was treated with vehicle. One group was treated with Sutent, the positive control drug. […] Each group was dosed orally once a day for 24 days. Tumor volumes along with body weights were recorded twice per week. On the next day after 24 doses, the mice were killed, and tumors were weighed. The tumor growth inhibition of each group was calculated using the following formula: {[(the average tumor weight of control group)-(the average tumor weight of test group)]/(the average tumor weight of control group)}×100%.

The mark [1] stands for this setting: 5 mg/kg orally once a day for 24 days.
Setting [2] is: 10 mg/kg orally once a day for 24 days.
[3] abbreviates: 20 mg/kg orally once a day for 24 days.
Setting [4] is: 40 mg/kg orally once a day for 24 days.

T1 sequence (P09619 33-1106): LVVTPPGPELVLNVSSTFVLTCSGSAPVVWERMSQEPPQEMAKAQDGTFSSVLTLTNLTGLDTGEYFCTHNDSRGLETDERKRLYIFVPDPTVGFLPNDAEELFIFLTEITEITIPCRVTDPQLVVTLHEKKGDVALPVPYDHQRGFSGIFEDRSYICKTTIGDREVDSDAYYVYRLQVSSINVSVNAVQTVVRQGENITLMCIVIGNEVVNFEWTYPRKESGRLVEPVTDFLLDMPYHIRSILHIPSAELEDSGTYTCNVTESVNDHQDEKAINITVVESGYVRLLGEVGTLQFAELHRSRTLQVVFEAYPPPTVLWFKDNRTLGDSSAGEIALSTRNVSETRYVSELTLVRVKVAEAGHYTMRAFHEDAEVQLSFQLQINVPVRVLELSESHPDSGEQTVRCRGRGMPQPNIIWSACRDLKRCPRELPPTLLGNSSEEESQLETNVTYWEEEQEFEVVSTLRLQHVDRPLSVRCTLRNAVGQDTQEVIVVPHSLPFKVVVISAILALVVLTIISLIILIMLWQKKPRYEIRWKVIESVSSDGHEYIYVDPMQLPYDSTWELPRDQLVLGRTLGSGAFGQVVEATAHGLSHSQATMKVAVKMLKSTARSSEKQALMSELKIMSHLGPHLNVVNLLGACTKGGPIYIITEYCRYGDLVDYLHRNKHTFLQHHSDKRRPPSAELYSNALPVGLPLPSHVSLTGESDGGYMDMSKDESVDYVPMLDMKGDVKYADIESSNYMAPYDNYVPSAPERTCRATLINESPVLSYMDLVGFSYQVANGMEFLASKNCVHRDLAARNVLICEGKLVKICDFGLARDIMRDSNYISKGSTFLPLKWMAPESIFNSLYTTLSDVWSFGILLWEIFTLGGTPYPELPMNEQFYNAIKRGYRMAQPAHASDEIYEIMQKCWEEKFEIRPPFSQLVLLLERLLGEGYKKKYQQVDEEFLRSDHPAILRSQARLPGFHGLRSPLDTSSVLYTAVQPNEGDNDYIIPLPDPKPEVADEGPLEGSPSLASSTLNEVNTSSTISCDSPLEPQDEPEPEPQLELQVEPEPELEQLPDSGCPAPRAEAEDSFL

As to `COc1ccc2c(Oc3ccc4c(C(=O)Nc5ccccc5N)cccc4c3)ccnc2c1` [Compound 31, N-(2-aminophenyl)-6-(7-methoxyquinolin-4-yloxy)-1-naphthamide], the IC50 was determined as 0.046 µM at human PDGFRβ; 0.005 µM in the series on HUVEC cells; 9.5 µM with A-498; 17.3 µM in the series on A549; 30 µM in the series on Bel-7402; 6.6 µM in the series with HCT-8. In addition, in the series with MCF-7, the IC50 worked out at 10.2 µM. In addition, the “% inhibition of total HDAC enzyme activity at 30µM” value with total HDAC enzyme was found to be 10.1%. Besides, the fold induction at 10 µM in the series with Class I HDAC came out at 1.6. The “Tumor weight” value with human A549 lung cancer (setting [1]) was 2.20 ± 0.57 g; in the series on human A549 lung cancer (setting [2]) it was 2.13 ± 0.51 g; in the series with human A549 lung cancer (setting [3]) it was 1.50 ± 0.41 g; in the series on human A549 lung cancer (setting [4]), 1.06 ± 0.54 g. Further, the “Body weight (g) end” value with human A549 lung cancer (setting [1]) was determined as 24.6 ± 1.3 g; in the series on human A549 lung cancer (setting [2]), 25.1 ± 1.3 g; with human A549 lung cancer (setting [3]), 24.2 ± 0.7 g; with human A549 lung cancer (setting [4]), 22.6 ± 2.4 g. Also, the “Body weight (g) start” value with human A549 lung cancer (setting [1]) was found to be 21.1 ± 0.6 g; in the series with human A549 lung cancer (setting [2]), 19.9 ± 1.3 g; in the series with human A549 lung cancer (setting [3]), 20.6 ± 1.1 g; in the series with human A549 lung cancer (setting [4]), 20.0 ± 0.9 g. Besides, the “TGI (%)” value is on record as 64.3% in the series with human A549 lung cancer (setting [3]) and 74.8% in the series with human A549 lung cancer (setting [4]).
As to `COc1ccc2c(Oc3ccc4c(C(=O)NCc5ccc(C(=O)Nc6ccccc6N)cc5)cccc4c3)ccnc2c1` [Compound 33, N-(4-((2-aminophenyl)carbamoyl)benzyl)-6-(7-methoxyquinolin-4-yloxy)-1-naphthamide], the IC50 at human PDGFRβ came out at 0.3 µM; with HUVEC cells, 0.008 µM; in the series on A-498, 1.9 µM; in the series with A549 it was 2.1 µM; in the series on Bel-7402, 2.8 µM; with HCT-8, 1.5 µM. Further, in the series on MCF-7, the IC50 came out at 2 µM. Further, the “% inhibition of total HDAC enzyme activity at 30µM” value with total HDAC enzyme was 39.1%. Moreover, the fold induction at 10 µM in the series with Class I HDAC was determined as 2.8.
